Reference: patent publication US20150322120A1 (priority 2012, published 2015)
Positions of bridges follow the written chain, without caps; N, C: chain ends. Non-standard residues stand in square brackets, D forms with d. Residues, ends and D or L forms follow the SMILES beside them. Chains are numbered I, II in the order given. No end group written: not given here. *: point of attachment. Glutathionyl = N[C@@H](CCC(=O)N[C@@H](CS*)C(=O)NCC(=O)O)C(=O)O; Hyp = O=C(O)[C@@H]1C[C@@H](O)CN1

Tests used:
[1] = target: rNav 1.7 (Rattus norvegicus, UniProt O08562); assay: cell-based; assay type: cell-based
[2] = target: hNaV1.7 (Homo sapiens, UniProt Q15858); assay type: cell-based
[3] = read-out: rNav 1.7 % block peptide concentration

rNav 1.7, sequence (O08562 whole entry, looked up): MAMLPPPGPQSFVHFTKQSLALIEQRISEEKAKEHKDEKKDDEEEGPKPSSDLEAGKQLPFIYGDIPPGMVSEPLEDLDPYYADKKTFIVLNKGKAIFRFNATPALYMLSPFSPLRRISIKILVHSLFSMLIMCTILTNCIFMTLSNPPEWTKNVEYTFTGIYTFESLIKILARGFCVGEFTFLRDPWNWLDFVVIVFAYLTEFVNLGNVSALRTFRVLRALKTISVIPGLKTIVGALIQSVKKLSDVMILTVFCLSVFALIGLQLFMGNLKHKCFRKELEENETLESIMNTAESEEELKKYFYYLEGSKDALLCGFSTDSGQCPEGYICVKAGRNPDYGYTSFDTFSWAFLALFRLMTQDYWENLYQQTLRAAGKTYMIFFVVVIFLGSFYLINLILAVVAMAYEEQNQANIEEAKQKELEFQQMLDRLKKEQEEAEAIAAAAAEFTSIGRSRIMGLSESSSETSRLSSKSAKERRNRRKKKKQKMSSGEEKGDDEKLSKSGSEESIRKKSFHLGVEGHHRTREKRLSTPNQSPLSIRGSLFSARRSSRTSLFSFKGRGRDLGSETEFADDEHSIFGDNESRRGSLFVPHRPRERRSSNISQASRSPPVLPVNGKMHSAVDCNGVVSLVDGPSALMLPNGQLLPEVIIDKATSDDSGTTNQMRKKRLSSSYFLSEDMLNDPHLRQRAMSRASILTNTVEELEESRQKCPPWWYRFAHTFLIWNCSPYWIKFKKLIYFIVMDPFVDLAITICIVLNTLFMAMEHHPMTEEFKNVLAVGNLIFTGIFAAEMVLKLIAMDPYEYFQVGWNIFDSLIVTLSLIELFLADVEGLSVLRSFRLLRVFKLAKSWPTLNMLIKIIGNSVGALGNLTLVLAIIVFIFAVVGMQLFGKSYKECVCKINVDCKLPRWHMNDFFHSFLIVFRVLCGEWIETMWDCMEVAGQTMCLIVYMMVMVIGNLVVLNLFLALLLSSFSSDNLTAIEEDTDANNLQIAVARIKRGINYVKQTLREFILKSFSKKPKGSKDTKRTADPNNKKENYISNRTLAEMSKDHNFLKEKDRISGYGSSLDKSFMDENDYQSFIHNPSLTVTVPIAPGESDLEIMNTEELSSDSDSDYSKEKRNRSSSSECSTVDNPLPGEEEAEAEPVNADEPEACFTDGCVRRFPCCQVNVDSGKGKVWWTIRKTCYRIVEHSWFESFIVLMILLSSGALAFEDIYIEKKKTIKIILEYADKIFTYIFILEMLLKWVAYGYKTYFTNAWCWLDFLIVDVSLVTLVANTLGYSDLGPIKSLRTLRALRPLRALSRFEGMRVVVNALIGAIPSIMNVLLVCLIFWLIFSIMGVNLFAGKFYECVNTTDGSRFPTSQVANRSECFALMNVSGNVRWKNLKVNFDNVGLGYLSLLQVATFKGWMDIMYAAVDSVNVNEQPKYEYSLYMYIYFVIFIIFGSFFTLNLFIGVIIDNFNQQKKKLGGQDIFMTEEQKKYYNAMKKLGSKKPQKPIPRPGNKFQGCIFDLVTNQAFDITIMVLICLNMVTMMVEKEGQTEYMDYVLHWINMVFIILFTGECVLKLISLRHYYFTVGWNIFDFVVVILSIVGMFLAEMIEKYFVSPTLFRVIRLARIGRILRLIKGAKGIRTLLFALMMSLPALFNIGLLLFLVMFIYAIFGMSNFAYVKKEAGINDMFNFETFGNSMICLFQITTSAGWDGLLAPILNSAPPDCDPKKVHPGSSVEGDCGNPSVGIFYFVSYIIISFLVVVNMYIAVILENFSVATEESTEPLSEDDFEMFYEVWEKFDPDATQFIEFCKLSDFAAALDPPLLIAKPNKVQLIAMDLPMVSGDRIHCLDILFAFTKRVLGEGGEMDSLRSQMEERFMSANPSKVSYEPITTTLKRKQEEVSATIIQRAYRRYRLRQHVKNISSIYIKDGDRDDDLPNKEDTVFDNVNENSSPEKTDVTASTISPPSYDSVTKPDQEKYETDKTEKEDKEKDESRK
hNaV1.7, sequence (Q15858 whole entry, looked up): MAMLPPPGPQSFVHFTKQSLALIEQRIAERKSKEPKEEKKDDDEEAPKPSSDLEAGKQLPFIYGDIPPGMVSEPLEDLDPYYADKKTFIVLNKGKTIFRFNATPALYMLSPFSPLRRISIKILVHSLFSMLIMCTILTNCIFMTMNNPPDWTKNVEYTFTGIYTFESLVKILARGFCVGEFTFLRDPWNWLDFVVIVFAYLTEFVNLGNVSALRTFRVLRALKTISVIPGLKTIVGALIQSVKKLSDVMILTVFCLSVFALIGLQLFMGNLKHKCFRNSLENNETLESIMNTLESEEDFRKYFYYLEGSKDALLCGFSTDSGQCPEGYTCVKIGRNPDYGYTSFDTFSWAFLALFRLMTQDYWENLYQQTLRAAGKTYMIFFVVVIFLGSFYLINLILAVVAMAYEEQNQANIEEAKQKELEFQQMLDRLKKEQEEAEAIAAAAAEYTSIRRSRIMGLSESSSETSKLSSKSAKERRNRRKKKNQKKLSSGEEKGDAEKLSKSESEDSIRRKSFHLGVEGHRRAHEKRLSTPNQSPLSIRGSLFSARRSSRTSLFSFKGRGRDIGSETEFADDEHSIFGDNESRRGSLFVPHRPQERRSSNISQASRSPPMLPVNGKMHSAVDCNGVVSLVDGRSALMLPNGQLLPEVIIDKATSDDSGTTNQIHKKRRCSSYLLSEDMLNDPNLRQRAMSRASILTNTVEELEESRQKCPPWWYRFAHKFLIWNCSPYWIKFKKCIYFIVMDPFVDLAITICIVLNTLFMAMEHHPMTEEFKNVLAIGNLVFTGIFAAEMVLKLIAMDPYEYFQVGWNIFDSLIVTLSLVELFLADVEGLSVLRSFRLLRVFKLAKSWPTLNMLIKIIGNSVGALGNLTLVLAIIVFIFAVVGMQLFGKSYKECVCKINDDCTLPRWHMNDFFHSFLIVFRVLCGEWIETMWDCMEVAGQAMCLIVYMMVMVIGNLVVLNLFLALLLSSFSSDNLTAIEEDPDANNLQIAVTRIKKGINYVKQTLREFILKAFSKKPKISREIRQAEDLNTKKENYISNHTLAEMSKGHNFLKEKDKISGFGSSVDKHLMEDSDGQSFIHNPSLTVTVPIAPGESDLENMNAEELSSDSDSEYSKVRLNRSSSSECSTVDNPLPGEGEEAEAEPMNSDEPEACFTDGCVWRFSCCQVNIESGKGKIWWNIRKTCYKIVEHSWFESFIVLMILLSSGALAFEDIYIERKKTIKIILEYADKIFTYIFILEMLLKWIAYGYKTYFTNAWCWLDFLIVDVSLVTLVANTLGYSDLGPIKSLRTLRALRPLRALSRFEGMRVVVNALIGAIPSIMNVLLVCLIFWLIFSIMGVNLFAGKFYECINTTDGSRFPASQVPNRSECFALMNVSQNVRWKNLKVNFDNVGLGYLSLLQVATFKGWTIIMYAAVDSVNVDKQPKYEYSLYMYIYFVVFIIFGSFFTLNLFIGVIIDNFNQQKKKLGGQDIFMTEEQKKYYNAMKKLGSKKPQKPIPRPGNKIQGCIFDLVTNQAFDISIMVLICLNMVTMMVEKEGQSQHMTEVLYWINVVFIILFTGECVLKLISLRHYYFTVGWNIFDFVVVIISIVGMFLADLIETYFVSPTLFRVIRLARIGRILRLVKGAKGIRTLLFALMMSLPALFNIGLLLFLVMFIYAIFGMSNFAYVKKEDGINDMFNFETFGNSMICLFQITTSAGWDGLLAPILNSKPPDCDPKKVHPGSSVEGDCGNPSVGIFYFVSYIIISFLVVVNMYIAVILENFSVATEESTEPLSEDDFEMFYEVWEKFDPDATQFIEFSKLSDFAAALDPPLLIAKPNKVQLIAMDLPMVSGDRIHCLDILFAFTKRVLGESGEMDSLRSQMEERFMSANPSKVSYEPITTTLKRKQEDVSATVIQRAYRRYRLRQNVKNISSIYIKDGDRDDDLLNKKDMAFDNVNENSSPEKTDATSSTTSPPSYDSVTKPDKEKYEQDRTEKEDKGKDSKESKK

Row | Compound | inhibition at 33 µM [1, 3] | also measured
1 | CC[C@@H]1NC(=O)[C@H](CC(=O)O)NC(=O)[C@@H]2CSSC[C@@H]3NC(=O)[C@H]([C@@H](C)O)NC(=O)[C@H](C)NC(=O)CNC(=O)[C@@H]4C[C@@H](O)CN4C(=O)[C@H](CC(=O)O)NC(=O)CNC(=O)[C@@H](NC(=O)[C@H](Cc4c[nH]c5ccccc45)NC(=O)CN)CSSC[C@H](NC(=O)[C@H](CSSC[C@@H](C(=O)N[C@@H](CCCCN)C(=O)N[C@@H](CC(=O)O)C(=O)N[C@@H](CCCCN)C(=O)N[C@@H](CO)C(=O)N[C@@H](CO)C(=O)N[C@@H](C)C(=O)O)NC(=O)[C@H]([C@@H](C)O)NC(=O)[C@H](CCCCN)NC(=O)[C@H]([C@@H](C)O)NC(=O)[C@H](Cc4ccc(O)cc4)NC1=O)NC(=O)[C@H](Cc1ccc(O)cc1)NC(=O)[C@H](CC(C)C)NC(=O)[C@H](CCCNC(=N)N)NC(=O)[C@H](CC(C)C)NC(=O)[C@H](CCCCN)NC(=O)CNC3=O)C(=O)N[C@@H](CO)C(=O)NCC(=O)N[C@@H](Cc1ccccc1)C(=O)N2 [C.geo1[C24Abu]] | 20% | –
2 | CC(C)C[C@@H]1NC(=O)[C@H](CCCCN)NC(=O)CNC(=O)[C@@H]2CSSC[C@@H]3NC(=O)[C@H](Cc4ccccc4)NC(=O)CNC(=O)[C@H](CO)NC(=O)[C@H](CSSC[C@H](NC(=O)[C@H](Cc4c[nH]c5ccccc45)NC(=O)CN)C(=O)NCC(=O)N[C@@H](CC(=O)O)C(=O)N4C[C@H](O)C[C@H]4C(=O)NCC(=O)N[C@@H](C)C(=O)N[C@@H]([C@@H](C)O)C(=O)N2)NC(=O)[C@H](CSSC[C@@H](C(=O)N[C@@H](CCCCN)C(=O)N[C@@H](CC(=O)O)C(=O)N[C@@H](CCCCN)C(=O)N[C@@H](CO)C(=O)N[C@@H](CO)C(=O)N[C@@H](C)C(=O)O)NC(=O)[C@H]([C@@H](C)O)NC(=O)CNC(=O)[C@H]([C@@H](C)O)NC(=O)[C@H](Cc2ccc(O)cc2)NC(=O)[C@H](CSSC[C@H](NC(=O)CC[C@H](N)C(=O)O)C(=O)NCC(=O)O)NC(=O)[C@H](CC(=O)O)NC3=O)NC(=O)[C@H](Cc2ccc(O)cc2)NC(=O)[C@H](CC(C)C)NC(=O)[C@H](CCCNC(=N)N)NC1=O [C.geeo1[K27G]] | 60% | –
3 | CC(C)C[C@@H]1NC(=O)[C@H](CCCCN)NC(=O)CNC(=O)[C@@H]2CSSC[C@@H]3NC(=O)[C@H](Cc4ccccc4)NC(=O)CNC(=O)[C@H](CO)NC(=O)[C@H](CSSC[C@H](NC(=O)[C@H](Cc4c[nH]c5ccccc45)NC(=O)CN)C(=O)NCC(=O)N[C@@H](CC(=O)O)C(=O)N4C[C@H](O)C[C@H]4C(=O)NCC(=O)N[C@@H](C)C(=O)N[C@@H]([C@@H](C)O)C(=O)N2)NC(=O)[C@H](CSSC[C@@H](C(=O)N[C@@H](CCCCN)C(=O)N[C@@H](CC(=O)O)C(=O)N[C@@H](CCCCN)C(=O)N[C@@H](CO)C(=O)N[C@@H](CO)C(=O)N[C@@H](C)C(=O)O)NC(=O)[C@H]([C@@H](C)O)NC(=O)[C@H](CCCCN)NC(=O)[C@H]([C@@H](C)O)NC(=O)[C@H](Cc2ccc(O)cc2)NC(=O)[C@H](CCC(=O)O)NC(=O)[C@H](CC(=O)O)NC3=O)NC(=O)[C@H](Cc2ccc(O)cc2)NC(=O)[C@H](CC(C)C)NC(=O)[C@H](CCCNC(=N)N)NC1=O [C.geo1[C24E]] (H-GWCGD[Hyp]GATCGKLRLYCCSGFCDEYTKTCKDKSSA-OH; disulfide 3-18, 10-22, 17-29) | 15% | –
4 | CC(C)C[C@@H]1NC(=O)[C@H](CCCCN)NC(=O)CNC(=O)[C@@H]2CSSC[C@@H]3NC(=O)[C@H](Cc4ccccc4)NC(=O)CNC(=O)[C@H](CO)NC(=O)[C@H](CSSC[C@H](NC(=O)[C@H](Cc4c[nH]c5ccccc45)NC(=O)CN)C(=O)NCC(=O)N[C@@H](CC(=O)O)C(=O)N[C@@H](C)C(=O)NCC(=O)N[C@@H](C)C(=O)N[C@@H]([C@@H](C)O)C(=O)N2)NC(=O)[C@H](CSSC[C@@H](C(=O)N[C@@H](CCCCN)C(=O)N[C@@H](CC(=O)O)C(=O)N[C@@H](CCCCN)C(=O)N[C@@H](CO)C(=O)N[C@@H](CO)C(=O)N[C@@H](C)C(=O)O)NC(=O)[C@H]([C@@H](C)O)NC(=O)[C@H](CCCCN)NC(=O)[C@H]([C@@H](C)O)NC(=O)[C@H](Cc2ccc(O)cc2)NC(=O)[C@H](CSSC[C@H](NC(=O)CC[C@H](N)C(=O)O)C(=O)NCC(=O)O)NC(=O)[C@H](CC(=O)O)NC3=O)NC(=O)[C@H](Cc2ccc(O)cc2)NC(=O)[C@H](CC(C)C)NC(=O)[C@H](CCCNC(=N)N)NC1=O [C.geo1[O6A]] (H-GWCGDAGATCGKLRLYCCSGFCDC(Glutathionyl)YTKTCKDKSSA-OH; disulfide 3-18, 10-22, 17-29) | 60% | –
5 | CC(=O)NCSC[C@@H]1NC(=O)[C@H](CC(=O)O)NC(=O)[C@@H]2CSSC[C@@H]3NC(=O)[C@H]([C@@H](C)O)NC(=O)[C@H](C)NC(=O)CNC(=O)[C@@H]4C[C@@H](O)CN4C(=O)[C@H](CC(=O)O)NC(=O)CNC(=O)[C@@H](NC(=O)[C@H](Cc4c[nH]c5ccccc45)NC(=O)CN)CSSC[C@H](NC(=O)[C@H](CSSC[C@@H](C(=O)N[C@@H](CCCCN)C(=O)N[C@@H](CC(=O)O)C(=O)N[C@@H](CCCCN)C(=O)N[C@@H](CO)C(=O)N[C@@H](CO)C(=O)N[C@@H](C)C(=O)O)NC(=O)[C@H]([C@@H](C)O)NC(=O)[C@H](CCCCN)NC(=O)[C@H]([C@@H](C)O)NC(=O)[C@H](Cc4ccc(O)cc4)NC1=O)NC(=O)[C@H](Cc1ccc(O)cc1)NC(=O)[C@H](CC(C)C)NC(=O)[C@H](CCCNC(=N)N)NC(=O)[C@H](CC(C)C)NC(=O)[C@H](CCCCN)NC(=O)CNC3=O)C(=O)N[C@@H](CO)C(=O)NCC(=O)N[C@@H](Cc1ccccc1)C(=O)N2 [C.geo1[C24Cys(Acm)]] | 70% | –
6 | CVGRDSKCGPPPCCMGMTCNYERVRKCT [SEQ ID 025] | – | activity against rNav1.7 [1]: not active; activity against hNav1.7 [2]: not active
7 | DWCGDAGDACGTLKLRCCSGLCNQYSGTCTG [C. geo2] | – | % block of hNaV1.7 [2]: 69%
8 | CC(C)C[C@@H]1NC(=O)[C@H](CCCCN)NC(=O)CNC(=O)[C@@H]2CSSC[C@@H]3NC(=O)[C@H](Cc4ccccc4)NC(=O)CNC(=O)[C@H](CO)NC(=O)[C@H](CSSC[C@H](NC(=O)[C@H](Cc4c[nH]c5ccccc45)NC(=O)CN)C(=O)NCC(=O)N[C@@H](CC(=O)O)C(=O)N4C[C@H](O)C[C@H]4C(=O)NCC(=O)N[C@@H](C)C(=O)N[C@@H]([C@@H](C)O)C(=O)N2)NC(=O)[C@H](CSSC[C@@H](C(=O)N[C@@H](CCCCN)C(=O)N[C@@H](CC(=O)O)C(=O)N[C@@H](CCCCN)C(=O)N[C@@H](CO)C(=O)N[C@@H](CO)C(=O)N[C@@H](C)C(=O)O)NC(=O)[C@H]([C@@H](C)O)NC(=O)[C@H](CCCCN)NC(=O)[C@H]([C@@H](C)O)NC(=O)[C@H](Cc2ccc(O)cc2)NC(=O)[C@H](CCCCN)NC(=O)[C@H](CC(=O)O)NC3=O)NC(=O)[C@H](Cc2ccc(O)cc2)NC(=O)[C@H](CC(C)C)NC(=O)[C@H](CCCNC(=N)N)NC1=O [C.geo1[C24K]] (H-GWCGD[Hyp]GATCGKLRLYCCSGFCDKYTKTCKDKSSA-OH; disulfide 3-18, 10-22, 17-29) | 20% | –
9 | I: GWCGD[Hyp]GATCGKLRLYCCSGFCDCYTKTCKDKSSA / II: GWCGD[Hyp]GATCGKLRLYCCSGFCDCYTKTCKDKSSA (disulfide I:3-I:18, I:10-I:22, I:17-I:29, I:24-II:24, II:3-II:18, II:10-II:22, II:17-II:29) [C.geo1[dimer]] | – | inhibition at 30 µM [1, 3]: 70%
10 | CC(C)C[C@@H]1NC(=O)[C@H](CCCCN)NC(=O)CNC(=O)[C@@H]2CSSC[C@@H]3NC(=O)[C@H](Cc4ccccc4)NC(=O)CNC(=O)[C@H](CO)NC(=O)[C@H](CSSC[C@H](NC(=O)[C@H](Cc4c[nH]c5ccccc45)NC(=O)CN)C(=O)NCC(=O)N[C@@H](CC(=O)O)C(=O)N4C[C@H](O)C[C@H]4C(=O)NCC(=O)N[C@@H](C)C(=O)N[C@@H]([C@@H](C)O)C(=O)N2)NC(=O)[C@H](CSSC[C@@H](C(=O)N[C@@H](CCCCN)C(=O)N[C@@H](CC(=O)O)C(=O)N[C@@H](CCCCN)C(=O)N[C@@H](CO)C(=O)N[C@@H](CO)C(=O)N[C@@H](C)C(=O)O)NC(=O)[C@H]([C@@H](C)O)NC(=O)[C@H](CCCCN)NC(=O)[C@H]([C@@H](C)O)NC(=O)[C@H](Cc2ccc(O)cc2)NC(=O)[C@H](CO)NC(=O)[C@H](CC(=O)O)NC3=O)NC(=O)[C@H](Cc2ccc(O)cc2)NC(=O)[C@H](CC(C)C)NC(=O)[C@H](CCCNC(=N)N)NC1=O [C.geo1[C24S]] (H-GWCGD[Hyp]GATCGKLRLYCCSGFCDSYTKTCKDKSSA-OH; disulfide 3-18, 10-22, 17-29) | 20% | –
11 | GWCGDOGATCGKLRLYCCSGFCD(Abu)YTKTCKDKS_A [C. geo1[C24Abu,des-Ser34]] | – | % block of NaV1.7 from rat [1]: 20%; reversibility of NaV1.7 block [1]: quickly reversible
